The source of these data is US7166738B2, “Non-nucleoside reverse transcriptase inhibitors” (Roche Palo Alto LLC, priority 2004, dated 2007).

Series [1] has as its target HIV-1 RT (Human immunodeficiency virus type 1 group M subtype B, UniProt P03366). The experiment in a line: HIV Reverse Transcriptase Assay: Inhibitor IC50 Determination. The series is classed as biochemical. On the procedure: HIV Reverse Transcriptase Assay: Inhibitor IC50 Determination
HIV-1 RT assay was carried out in 96-well Millipore MultiScreen MADVNOB50 plates using purified recombinant enzyme and a poly(rA)/oligo(dT)16 template-primer in a total volume of 50 μL. The assay constituents were 50 mM Tris/HCl, 50 mM NaCl, 1 mM EDTA, 6 mM MgCl2, 5 μM dTTP, 0.15 μCi [^3H] dTTP, 5 μg/ml poly (rA) pre annealed to 2.5 μg/ml oligo (dT)16 and a range of inhibitor concentrations in a final concentration of 10% DMSO. Reactions were initiated by adding 4 nM HIV-1 RT and after incubation at 37° C. for 30 min, they were stopped by the addition of 50 μl ice cold 20% TCA and allowed to precipitate at 4° C. for 30 min. The precipitates were collected by applying vacuum to the plate and sequentially washing with 3×200 μl of 10% TCA and 2×200 μl 70% ethanol. Finally, the plates were dried and radioactivity counted in a Packard TopCounter after the addition of 25 μl scintillation fluid per well. IC50's were calculated by plotting % inhibition versus log10 inhibitor concentrations.

For series [2], the system named is HIV. The experiment in a line: Anti-viral Assay (method of Pauwels et al.). The series is classed as cell-based. The conditions noted are these: Human immunodeficiency virus 1. On the procedure: Anti-viral assays were carried out by the method described by R. E. Pauwels et al. J. Virol. Methods 1988 20(4):309–322.
[3] abbreviates: purified recombinant enzyme, poly(rA)/oligo(dT)16 template-primer, 37° C. 30 min, read-out: RT inhibition.

Structures can show the parent of a compound that is named as a salt. Where two headings read alike, the source gives them in different places.

As to `CCC(=O)NS(=O)(=O)c1ccc(NC(=O)Cc2ccc(Br)c(Oc3cc(Cl)cc(C#N)c3)c2F)c(Cl)c1` [Compound I-63, 2-[4-Bromo-3-(3-chloro-5-cyano-phenoxy)-2-fluoro-phenyl]-N-(2-chloro-4-propionylsulfamoyl-phenyl)-acetamide; sodium salt], the IC50 in series [1] came out at 5.8 nM.
Regarding `Cc1ccc(CC(=O)Nc2ccc(S(N)(=O)=O)cc2Cl)c(F)c1Oc1cc(Cl)cc(C#N)c1` [Compound I-83, 2-[3-(3-Chloro-5-cyano-phenoxy)-2-fluoro-4-methyl-phenyl]-N-(2-chloro-4-sulfamoyl-phenyl)-acetamide], the melting point (in general, the temperature, or range, at which the solid turns liquid) was 228.9 to 230.6 °C. Further, in series [1] (setting [3]), the IC50 was found to be 8.1 nM. Moreover, the 50% effective concentration (EC50) (in general, the midpoint of the concentration-response curve) in series [2] is 0.9 nM.
`Cc1ccc(CC(=O)Nc2ccc(S(N)(=O)=O)cc2Cl)c(F)c1Oc1cc(C#N)cc(C(F)F)c1` [Compound I-84, N-(2-Chloro-4-sulfamoyl-phenyl)-2-[3-(3-cyano-5-difluoromethyl-phenoxy)-2-fluoro-4-methyl-phenyl]-acetamide] came in with a melting point of 218 to 218.7 °C. Moreover, the IC50 in series [1] (setting [3]) stood at 14 nM. Moreover, a half-maximal response in series [2] (EC50) required 0.4 nM.
For `N#Cc1cc(Cl)cc(Oc2c(Br)ccc(CC(=O)Nc3ccc(S(N)(=O)=O)cc3Cl)c2F)c1` [Compound I-109, 2-[4-Bromo-3-(3-chloro-5-cyano-phenoxy)-2-fluoro-phenyl]-N-(2-chloro-4-sulfamoyl-phenyl)-acetamide], the melting point was in the range of 165 to 166.6 °C. Besides, the IC50 in series [1] amounted to 13.6 nM. Besides, in series [2], the response was half-maximal at 1.3 nM (EC50).
The compound `CC(C)[C@H](N)C(=O)NS(=O)(=O)c1ccc(NC(=O)Cc2ccc(Cl)c(Oc3cc(Cl)cc(C#N)c3)c2F)c(Cl)c1.[Na]` [Compound I-127, N-[4-((S)-2-Amino-3-methyl-butyrylsulfamoyl)-2-chloro-phenyl]-2-[4-chloro-3-(3-chloro-5-cyano-phenoxy)-2-fluoro-phenyl]-acetamide; sodium salt] gave a melting point of 219.4 to 220.2 °C. In series [1], this compound gave an IC50 of 5.9 nM.
Taken in the same sequence, the figures for `CCCC(=O)NS(=O)(=O)c1ccc(NC(=O)Cc2ccc(Cl)c(Oc3cc(Cl)cc(C#N)c3)c2F)c(Cl)c1.[Na]` [Compound I-138, N-(4-Butyrylsulfamoyl-2-chloro-phenyl)-2-[4-chloro-3-(3-chloro-5-cyano-phenoxy)-2-fluoro-phenyl]-acetamide; sodium salt] were 157.2 to 157.9 °C and 4.5 nM.
As to `CCc1ccc(CC(=O)Nc2ccc(S(N)(=O)=O)cc2Cl)cc1Oc1cc(C#N)cc(C(F)F)c1` [Compound I-140, N-(2-Chloro-4-sulfamoyl-phenyl)-2-[3-(3-cyano-5-difluoromethyl-phenoxy)-4-ethyl-phenyl]-acetamide], the melting point was 191.8 to 192.5 °C. In addition, the IC50 in series [1] (setting [3]) is 21 nM. The EC50 in series [2] is 0.4 nM.
On the same counts, the results for `N#Cc1cc(Oc2c(Br)ccc(CC(=O)Nc3ccc(S(N)(=O)=O)cc3Cl)c2F)cc(C(F)F)c1` [Compound I-165, 2-[4-Bromo-3-(3-cyano-5-difluoromethyl-phenoxy)-2-fluoro-phenyl]-N-(2-chloro-4-sulfamoyl-phenyl)-acetamide] are 205.4 to 207.7 °C, 21 nM and 0.4 nM.
Turning to `Cc1cc(S(N)(=O)=O)ccc1NC(=O)Cc1ccc(Br)c(Oc2cc(C#N)cc(C(F)F)c2)c1F` [Compound I-169, 2-[4-Bromo-3-(3-cyano-5-difluoromethyl-phenoxy)-2-fluoro-phenyl]-N-(2-methyl-4-sulfamoyl-phenyl)-acetamide], the melting point is 223.9 to 225 °C. Besides, in series [1] (setting [3]), the IC50 is 27 nM. Moreover, the EC50 in series [2] came out at 0.4 nM.
Compound `CCc1ccc(CC(=O)Nc2ccc(S(N)(=O)=O)cc2Cl)c(F)c1Oc1cc(C#N)cc(C(F)F)c1` [Compound I-179, N-(2-Chloro-4-sulfamoyl-phenyl)-2-[3-(3-cyano-5-difluoromethyl-phenoxy)-4-ethyl-2-fluoro-phenyl]-acetamide] had a melting point of 239.6 to 240.7 °C. For the same compound, the IC50 in series [1] (setting [3]) was found to be 7.4 nM. For the same compound, in series [2], a half-maximal effect (EC50) was put at 0.4 nM.
As to `CCc1ccc(CC(=O)Nc2ccc(S(N)(=O)=O)cc2C)c(F)c1Oc1cc(C#N)cc(C(F)F)c1` [Compound I-180, 2-[3-(3-Cyano-5-difluoromethyl-phenoxy)-4-ethyl-2-fluoro-phenyl]-N-(2-methyl-4-sulfamoyl-phenyl)-acetamide], the melting point was 237.6 to 238.4 °C. The IC50 in series [1] (setting [3]) turned out to be 9.1 nM.
In turn, `Cc1cc(CC(=O)Nc2ccc(S(N)(=O)=O)cc2)cc(Oc2cc(Cl)cc(C#N)c2)c1C` [Compound I-182, 2-[3-(3-Chloro-5-cyano-phenoxy)-4,5-dimethyl-phenyl]-N-(4-sulfamoyl-phenyl)-acetamide] displayed a melting point of 229.7 to 231.3 °C.
On to `Cc1cc(S(N)(=O)=O)ccc1NC(=O)Cc1cc(C)c(C)c(Oc2cc(Cl)cc(C#N)c2)c1` [Compound I-183, 2-[3-(3-Chloro-5-cyano-phenoxy)-4,5-dimethyl-phenyl]-N-(2-methyl-4-sulfamoyl-phenyl)-acetamide], for which the melting point fell in the range of 230.8 to 233.4 °C.
Still for that read-out and setting: then `Cc1cc(CC(=O)Nc2ccc(S(N)(=O)=O)cc2Cl)cc(Oc2cc(Cl)cc(C#N)c2)c1C` [Compound I-184, 2-[3-(3-Chloro-5-cyano-phenoxy)-4,5-dimethyl-phenyl]-N-(2-chloro-4-sulfamoyl-phenyl)-acetamide], with 224.3 to 225.7 °C; and `Cc1cc(S(N)(=O)=O)ccc1NC(=O)Cc1ccc(Cl)c(Oc2cc(Br)cc(C#N)c2)c1F` [Compound I-185, 2-[3-(3-Bromo-5-cyano-phenoxy)-4-chloro-2-fluoro-phenyl]-N-(2-methyl-4-sulfamoyl-phenyl)-acetamide], with 246 to 250.6 °C; and `Cc1cc(S(N)(=O)=O)ccc1NC(=O)Cc1ccc(Cl)c(Oc2cc(C#N)cc(C#CCO)c2)c1F` [Compound I-186, 2-{4-Chloro-3-[3-cyano-5-(3-hydroxy-prop-1-ynyl)-phenoxy]-2-fluoro-phenyl}-N-(2-methyl-4-sulfamoyl-phenyl)-acetamide], with 170.1 to 173.2 °C.
Same read-out and setting: to `Cc1cc(S(N)(=O)=O)ccc1NC(=O)Cc1ccc(Cl)c(Oc2cc(C#N)cc(C#CCN(C)C)c2)c1F` [Compound I-187, 2-{4-Chloro-3-[3-cyano-5-(3-dimethylamino-prop-1-ynyl)-phenoxy]-2-fluoro-phenyl}-N-(2-methyl-4-sulfamoyl-phenyl)-acetamide] belongs 156.2 to 158.2 °C.
The same measure, in the same setting: to `N#Cc1cc(Cl)cc(Oc2c(Cl)ccc(CC(=O)Nc3ccc(S(=O)(=O)NC(=O)CCC(=O)O)cc3Cl)c2F)c1` [Compound I-188, 4-(3-Chloro-4-{2-[4-chloro-3-(3-chloro-5-cyano-phenoxy)-2-fluoro-phenyl]-acetylamino}-benzenesulfonylamino)-4-oxo-butyric acid] belongs 143.4 to 144 °C; to `COc1ccc(CC(=O)Nc2ccc(S(N)(=O)=O)cc2Cl)c(F)c1Oc1cc(Cl)cc(C#N)c1` [Compound I-190, 2-[3-(3-Chloro-5-cyano-phenoxy)-2-fluoro-4-methoxy-phenyl]-N-(2-chloro-4-sulfamoyl-phenyl)-acetamide], 212 to 212.8 °C.
For the compound `COc1ccc(CC(=O)Nc2ccc(S(N)(=O)=O)cc2C)c(F)c1Oc1cc(Cl)cc(C#N)c1` [Compound I-191, 2-[3-(3-Chloro-5-cyano-phenoxy)-2-fluoro-4-methoxy-phenyl]-N-(2-methyl-4-sulfamoyl-phenyl)-acetamide], the melting point fell in the range of 239.9 to 240.8 °C.
